Test results: US11414443B2, “Phospholipid derivatives and their use as medicaments” (USTAV MOLEKULARNI GENETIKY AV CR, V.V.I., priority 2017, dated 2022)
Where two headings read alike, the source gives them in different places.

Columns and labels:
[1] = tested on: LMH (chicken hepatocarcinoma); assay: cells; type: cell-based; settings: 16 hours of culture, ATP content
Description: (§1) The cytotoxic activity of the products was tested in tumor cell cultures C32 (human melanoma), TIB-75 (inducing murine hepatocarcinoma), LMH (chicken hepatocarcinoma).
B) LMH cells were cultured in D-MEM medium containing 10% fetal serum and penicillin+streptomycin at 37° C. in air/5% CO2 atmosphere saturated with water vapor. Each well contained 5×10^4 cells and 0.5 ml medium. […] After 16 hours of culture, cell state was recorded.
(§2) The cytotoxicity of the products was quantified by determining the ATP content in the cells and using neutral red intake, and the IC50ATP and IC50NR [μM] were determined.

C32 (human melanoma) = assay: Cytotoxicity in C32 tumor cell culture, ATP content; type: cell-based; settings: C32 cells, 16 hours of culture
Description: (§3) After 16 hours of culture, cell state was recorded.
as §2

[2] = tested on: TIB-75 (inducing murine hepatocarcinoma); assay: Cytotoxicity in TIB-75 tumor cell culture, ATP content; type: cell-based; settings: TIB-75 cells, 16 hours of culture
Description: as §3, §2

[3] = tested on: tumor cell cultures C32, TIB-75, LMH; assay: Cell state and growth in tumor cell cultures, controls and comparison products; settings: 0-240 μM, 16 hours of culture
Description: As a control, the starting phospholipids were used at the same concentrations and conditions.
as §1
(§4) A) C32 cells were cultured in D-MEM medium containing 10% fetal serum and penicillin+streptomycin at 37° C. in air/5% CO2 atmosphere saturated with water vapor. Each well contained 5×10^4 cells and 0.5 ml medium. The tested products were added to the cells at concentrations of 0, 2.5, 5, 10, 20, 40, 80, 160 and 240 μM. After 16 hours of culture, cell state was recorded.
as §4, with “B) LMH” for “A) C32”, “phospholipids” for “products”
as §4, with “C) TIB-75” for “A) C32”, “phospholipids” for “products”

[4] = tested on: mammary gland 4T1 cancer cell line; assay: Crystal violet cytotoxicity assay, E-DAPL/Dox combination; type: cell-based; settings: for IC50: Mus musculus
Description: The potentiation of cytotoxic effect of E-DAPL/Dox combination was evaluated. The dose-effect relationship of individual drugs and E-DAPL/Dox mixture (ratio 202:1 was tested) was determined on mammary gland 4T1 cancer cell line by means of crystal violet assay (three measurements). The linearized Median-Effect Plot of dose response line provided both parameters (IC50; trend line m value) of Median-Effect Equation for individual and combination treatment [ref: Theoretical basis, experimental design, and computerized simulation of synergism and antagonism in drug combination studies; Ting-Chao Chou: Pharmacol Rev. 58(3), 2006, 621-81; Erratum in Pharmacol Rev. 2007; 59(1), 124]:
Potentiation of combination effect of E-DAPL/Dox/202:1 was expressed for the concentrations IC1 to IC60 by calculation of Combination index (CI) applying Combination Index Theorem for mutually nonexclusive drugs that obey higher order conditions [ref: Quantitative analysis of dose-effect relationships: the combined effects of multiple drugs or enzyme inhibitors; Ting-Chao Chou, Paul Talalay: Advances in Enzyme Regulation, Volume 22, 1984, Pages 27-55]: […]

In the case of “1-acyl-lysophosphatidylcholine [PC/E-DAPL]”, the IC50 [1] is reported as 35 µM, the IC50 (C32 (human melanoma)) is reported as 50 µM and the IC50 [2] is reported as 45 µM.

In the case of “1-acyl-lysophosphatidylethanolamine [PE/E-DAPL]”, the IC50 [1] is reported as 30 µM, the IC50 (C32 (human melanoma)) is reported as 35 µM and the IC50 [2] is reported as 35 µM.

With “1-stearoyl-phosphatidylcholine [sn-1 stearoyl PC]” the “cytotoxic activity: effect on phenotype and rate of cell growth” value (shortened to “cytotoxic activity: effect”) [3] was “did not affect the phenotype or reduce the rate of cell growth”.

With “2-acyl-lysophosphatidylcholine [2-acyl PC (15-20% 1-acyl PC), reference compound]” the IC50 (C32 (human melanoma)) was 200 µM and the IC50 [2] was 210 µM.

In the case of COc1cccc2c1C(=O)c1c(O)c3c(c(O)c1C2=O)C[C@@](O)(C(=O)CO)C[C@@H]3O[C@H]1C[C@H](N)[C@H](O)[C@H](C)O1 [Dox, doxorubicin], the “concentration of Dox at IC25” value ([4]; 4T1 cell line, Dox alone or within E-DAPL/Dox 202:1) is reported as 0.2306 µM, the IC50 ([4]; 4T1 cell line, Dox alone or within E-DAPL/Dox 202:1, read-out: concentration of Dox at IC50 level) is reported as 0.93 µM and the IC50 ([4]; 4T1 cells, crystal violet assay, calculated from the Median-Effect Plot, read-out: IC50) is reported as 0.93 µM.

For C[N+](C)(C)CCOP(=O)([O-])OCC(O)COC(=O)CCC1CCCC1 (stereo not drawn) [sn-1 cyclopentanepropionyl PC/E-DAPL], the IC50 ([1]; Gallus gallus) was 130 µM and the IC50 (C32 (human melanoma); Homo sapiens) was 150 µM.

For CCCCCC(=O)OCC(O)COP(=O)([O-])OCC[N+](C)(C)C (stereo not drawn) [sn-1 hexanoyl PC/E-DAPL], the IC50 ([1]; Gallus gallus) was 135 µM, the IC50 (C32 (human melanoma); Homo sapiens) was 130 µM and the IC50 ([2]; Mus musculus) was 135 µM.

CCCCCCCCCCCCCCCCCC(=O)OCC(O)COP(=O)([O-])OCC[N+](C)(C)C (stereo not drawn) [sn-1 stearoyl PC/E-DAPL] gave an IC50 ([1]; Gallus gallus) of 40 µM, an IC50 (C32 (human melanoma); Homo sapiens) of 45 µM and an IC50 ([2]; Mus musculus) of 45 µM.

Compound CC(CC(=O)OCC(O)COP(=O)([O-])OCC[N+](C)(C)C)CC(C)(C)C (stereo not drawn) [sn-1 trimethylhexanoyl PC/E-DAPL] has an IC50 ([1]; Gallus gallus) of 140 µM and an IC50 (C32 (human melanoma); Homo sapiens) of 130 µM.

phosphatidylcholine [PC] was tested, and the “cytotoxic activity: effect” value [3] was “did not affect the phenotype or reduce the rate of cell growth”.

For phosphatidylethanolamine [PE], the “cytotoxic activity: effect” value [3] was “did not affect the phenotype or reduce the rate of cell growth”.
